# From patent EP2888233B1, “SUBSTITUTED 6-AMINO-NICOTINAMIDES BEARING AN OH-CONTAINING GROUP AS KCNQ2/3 MODULATORS” (Grünenthal GmbH, priority 2012, dated 2013)
# Tests used:
# [1] = target: T1, KCNQ2/3 channels (Homo sapiens, UniProt O43525+O43526); assay: Fluorescence assay using a voltage sensitive dye (fluorimetry); type: cell-based; settings: for Emax: CHO-K1, CHO-K1 cells expressing KCNQ2/3 channels, read-out: Fluorimetry % efficacy (retigabine = 100%); for Emax / Fluorimetry % efficacy (retigabine = 100%): plateau effect relative to saturated Retigabine (50 µM) = 100%; for EC50 / Fluorimetry % efficacy (retigabine = 100%): CHO-K1 cells expressing KCNQ2/3 channels; for EC50: voltage-sensitive dye, KCl depolarization, read-out: Fluorimetry EC50 / IC50
# T1 construct: expressed in transfected cells
# Excerpt: Method I. Fluorescence assay using a voltage sensitive dye (fluorimetry)
# The modulation of the KCNQ opening state (and consequently the voltage potential of a cell) by test compounds such as compounds according to the present invention results in an increased or reduced amount of a voltage-sensitive dye in the cytoplasm of the cells tested. These voltage-sensitive dyes are fluorescent dyes and, therefore, are forming the link between cell potential influenced by KCNQ modulation and fluorescence intensity. A KCNQ agonist leads to an opening of the channel, potassium and dye efflux, a following hyperpolarization and a reduction of the inner fluorescence intensity in a kinetic protocol. If applying an ion jump by KCl depolarization, KCNQ agonists increase the ΔF/F value. An antagonist performs vice versa, respectively.
# The 'fluorimetry EC50' is the half maximum effective concentration (EC50), where the concentration of a drug/compound induces a response halfway between the baseline and maximum plateau effect. In other words, said value represents the concentration of a compound, where 50% of its maximal effect in the fluorimetric assay is observed if the substance concentration is graphed against the corresponding ΔF/F values (for which the calculation method is described below). Therefore, 'fluorimetry EC50' is a measure for the compound potency. The compound efficacy is mirrored by 'fluorimetry % efficacy' ('%Efficacy') and refers to the maximum response achievable by the test compound, i.e. the plateau effect. This drug's plateau effect is related to the plateau effect, which can be achieved by applying a saturated concentration of a reference compound, e.g. Retigabine (50 µM), in independent wells of the same experimental plate or series. A compound showing 100% efficacy is as efficacious as the reference compound (Retigabine) with a saturated concentration.
# […] CHO-K1 cells expressing KCNQ2/3 channels are cultivated adherently at 37°C, 5% CO2 and 95% humidity in cell culture bottles (e.g. 80 cm^2 TC flasks, Nunc) with DMEM-high glucose (Sigma Aldrich, D7777) including 10% FCS (PAN Biotech, e.g. 3302-P270521) or alternatively MEM Alpha Medium (1x, liquid, Invitrogen, #22571), 10% fetal calf serum (FCS) (Invitrogen, #10270-106, heat-inactivated) and the necessary selection antibiotics.
# Before being sown out for the measurements, the cells are washed with 1 x DPBS buffer Ca^2+/Mg^2+-free (e.g. Invitrogen, #14190-094) and detached from the bottom of the culture vessel by using Accutase (PAA Laboratories, #L11-007) (incubation with Accutase for 15 min at 37°C). The cell number is determined using a CASY™ cell counter (TCC, Schärfe System). Depending on the optimal density for each individual cell line, 20,000-30,000 cells/well/100 µl are seeded onto 96-well Corning™ CellBIND™ assay plates (Flat Clear Bottom Black Polystyrene Microplates, #3340). Freshly seeded cells are then left to settle for one hour at room temperature, followed by incubation for 24 hours at 37°C, 5% CO2 and 95% humidity.
# The voltage-sensitive fluorescent dye from the Membrane Potential Assay Kit (Red™ Bulk format part R8123 for FLIPR, MDS Analytical Technologies™) is prepared by dissolving the contents of one vessel Membrane Potential Assay Kit Red Component A in 200 ml of extracellular buffer (ES buffer, 120 mM NaCl, 1 mM KCI, 10 mM HEPES, 2 mM CaCl2, 2 mM MgCl2, 10 mM glucose; pH 7.4). After removal of the nutrient medium, the cells are washed once with 200 µl of ES buffer, then loaded for 45 min at room temperature in 100 µl of dye solution in the dark.
# Fluorescence measurements are carried out in a BMG Labtech FLUOstar™, BMG Labtech NOVOstar™ or BMG Labtech POLARstar™ instrument (525 nm excitation, 560 nm emission, Bottom Read mode). […]
# [2] = tested on: withdrawal reflex of the rat tail (tail flick); assay: Low-intensity tail flick test (rat); type: in vivo, Male Sprague-Dawley rats; settings: MPE [%] at dose 10 mg/kg, dose printed in brackets in the cell
# Protocol: Method II. Low-intensity tail flick test (rat)
# In the low-intensity tail flick test, the determination of the antinociceptive effect of the compounds according to the invention towards an acute noxious thermal stimulus is carried out by measuring the withdrawal reflex of the rat tail (tail flick) in response to a radiant heat beam (analgesia meter; model 2011 of the company Rhema Labortechnik, Hofheim, Germany) according to the method described by D'Amour and Smith (J. Pharm. Exp. Ther. 72, 74 79 (1941). To this end, the rats were placed in a plexiglas restrainer, and a low-intensity radiant heat beam (48°C) was focused onto the dorsal surface of the tail root. […] Before administration of a compound according to the invention, the animals were pre-tested twice in the course of five minutes and the mean of these measurements was calculated as the pre-test mean. The antinociceptive effect was determined at 20, 40 and 60 min after peroral compound administration. The antinociceptive effect was calculated based on the increase in the tail withdrawal latency according to the following formula and is expressed as percentage of the maximum possible effect (MPE [%]): MPE = [(T1−T0)/(T2−T0)]*100 [formula] […]
Compound,Emax [1],EC50 [1],Fluorimetry % efficacy (retigabine = 100%) [1],"Low intensity tail flick, rat, peroral, ED50 or MPE (dose) [2]"
"CCOc1nc(N2CCOCC2)cc(C)c1C(=O)NCCC(O)C(C)(C)C (stereo not shown) [Example 8, 2-Ethoxy-N-(3-hydroxy-4,4-dimethyl-pentyl)-4-methyl-6-morpholin-4-yl-pyridine-3-carboxylic acid amide]",231%,252 nM,–,–
"Cc1cc(N2CCOCC2)nc(C(C)C)c1C(=O)NCCC(O)C(C)(C)C (single isomer, unassigned) [Example 5b, N-(3-hydroxy-4,4-dimethyl-pentyl)-2-isopropyl-4-methyl-6-morpholin-4-yl-pyridine-3-carboxylic acid amide]",–,94 nM,239%,–
"Cc1cc(N2CCOCC2)nc(C(C)C)c1C(=O)NCCC(O)C(F)(F)F (single isomer, unassigned) [Example 6a, 2-Isopropyl-4-methyl-6-morpholin-4-yl-N-(4,4,4-trifluoro-3-hydroxy-butyl)-pyridine-3-carboxylic acid amide]",–,1090 nM,206%,–
"Cc1cc(N2CCOCC2)nc(C(C)C)c1C(=O)NCCC(O)C(F)(F)F (single isomer, unassigned) [Example 6b, 2-Isopropyl-4-methyl-6-morpholin-4-yl-N-(4,4,4-trifluoro-3-hydroxy-butyl)-pyridine-3-carboxylic acid amide]",–,3920 nM,149%,–
"Cc1cc(N2CCOCC2)nc(C(C)C)c1C(=O)NCCC(O)C(C)(C)C (single isomer, unassigned) [Example 5a, N-(3-hydroxy-4,4-dimethyl-pentyl)-2-isopropyl-4-methyl-6-morpholin-4-yl-pyridine-3-carboxylic acid amide]",239%,431 nM,–,–

# Further lines, with some results ahead:
Emax [1],EC50 [1],Fluorimetry % efficacy (retigabine = 100%) [1],Compound,"Low intensity tail flick, rat, peroral, ED50 or MPE (dose) [2]"
99%,8550 nM,–,"Cc1cc(N2CCOCC2)nc(C2CC2)c1C(=O)NC[C@H]1CCCC[C@@H]1O [Example 3, 2-Cyclopropyl-N-[[(1R,2S)-2-hydroxy-cyclohexyl]-methyl]-4-methyl-6-morpholin-4-yl-pyridine-3-carboxylic acid amide]",–
242%,961 nM,–,"Cc1cc(N2CCOCC2)nc(C2CC2)c1C(=O)NCCC(O)C(C)(C)C (single isomer, unassigned) [Example 1a, 2-cyclopropyl-N-(3-hydroxy-4,4-dimethyl-pentyl)-4-methyl-6-morpholin-4-yl-pyridine-3-carboxylic acid amide]",–
–,318 nM,224%,"Cc1cc(N2CCOCC2)nc(C2CC2)c1C(=O)NCCC(O)C(C)(C)C (single isomer, unassigned) [Example 1b, 2-cyclopropyl-N-(3-hydroxy-4,4-dimethyl-pentyl)-4-methyl-6-morpholin-4-yl-pyridine-3-carboxylic acid amide]",100 (10) %
245%,483 nM,–,"Cc1cc(N2CCOCC2)nc(C2CC2)c1C(=O)NC[C@@H]1CCCC[C@H]1O [Example 2, 2-Cyclopropyl-N-[[(1S,2R)-2-hydroxy-cyclohexyl]-methyl]-4-methyl-6-morpholin-4-yl-pyridine-3-carboxylic acid amide]",67 (10) %
243%,185 nM,–,"Cc1cc(N2CCOCC2)nc(C(C)C)c1C(=O)NC[C@@H]1CCCC[C@H]1O [Example 7, N-[[(1S,2R)-2-Hydroxy-cyclohexyl]-methyl]-2-isopropyl-4-methyl-6-morpholin-4-yl-pyridine-3-carboxylic acid amide]",–
237%,529 nM,–,"Cc1cc(N2CCOCC2)nc(C2CC2)c1C(=O)NCCC(O)C(C)(C)C (stereo not shown) [Example 1, 2-Cyclopropyl-N-(3-hydroxy-4,4-dimethyl-pentyl)-4-methyl-6-morpholin-4-yl-pyridine-3-carboxylic acid amide]",–
150%,1990 nM,–,"Cc1cc(N2CCOCC2)nc(C(C)C)c1C(=O)NCCC(O)C(F)(F)F (stereo not shown) [Example 6, 2-Isopropyl-4-methyl-6-morpholin-4-yl-N-(4,4,4-trifluoro-3-hydroxy-butyl)-pyridine-3-carboxylic acid amide]",–
230%,156 nM,–,"Cc1cc(N2CCOCC2)nc(C(C)C)c1C(=O)NCCC(O)C(C)(C)C (stereo not shown) [Example 5, N-(3-Hydroxy-4,4-dimethyl-pentyl)-2-isopropyl-4-methyl-6-morpholin-4-yl-pyridine-3-carboxylic acid amide]",–
